The CheMixHub viscosity set

Test: xn = mol fraction of the nth substance listed

CC(C)OCCO + CCCNCCC
viscosity [mPa·s], 101.33 kPa
Conditions	298.15 K	308.15 K	318.15 K
x1 = 0.0484	0.544	0.476	0.41
x1 = 0.0855	0.581	0.505	0.435
x1 = 0.1225	0.625	0.534	0.458
x1 = 0.1899	0.704	0.599	0.502
x1 = 0.2514	0.798	0.671	0.555
x1 = 0.3234	0.918	0.76	0.617
x1 = 0.3933	1.046	0.855	0.685
x1 = 0.4465	1.154	0.941	0.747
x1 = 0.482	1.237	1.001	0.785
x1 = 0.5205	1.313	1.058	0.83
x1 = 0.6318	1.571	1.242	0.959
x1 = 0.73	1.776	1.381	1.076
x1 = 0.8358	1.959	1.516	1.187
x1 = 0.919	2.057	1.595	1.268
x1 = 0.9596	2.087	1.618	1.292

CC(C)OCCO + CCCO
298.15 K, 101.33 kPa
Conditions	viscosity [mPa·s]
x1 = 0.0192	1.947
x1 = 0.0257	1.944
x1 = 0.045	1.941
x1 = 0.0645	1.938
x1 = 0.081	1.933
x1 = 0.1072	1.93
x1 = 0.1486	1.927
x1 = 0.1863	1.923
x1 = 0.2438	1.919
x1 = 0.2942	1.914
x1 = 0.3545	1.916
x1 = 0.3782	1.921
x1 = 0.4251	1.929
x1 = 0.4749	1.938
x1 = 0.5261	1.949
x1 = 0.5659	1.958
x1 = 0.6184	1.971
x1 = 0.6608	1.983
x1 = 0.7	1.996
x1 = 0.7606	2.015
x1 = 0.8023	2.025
x1 = 0.8623	2.042
x1 = 0.8845	2.052
x1 = 0.9485	2.064

CCCCOCCO + CCCO
viscosity [mPa·s], 101 kPa
Conditions	x1 = 0.3032	x1 = 0.8553	x1 = 0.9516
298.15 K	–	2.725	–
303.15 K	1.925	–	2.615

CCOCCOCCOCC + CCCO
298.15 K, 101.33 kPa
Conditions	viscosity [mPa·s]
x1 = 0.007	1.918
x1 = 0.0129	1.894
x1 = 0.0249	1.844
x1 = 0.0395	1.788
x1 = 0.0516	1.747
x1 = 0.0695	1.687
x1 = 0.097	1.611
x1 = 0.1283	1.541
x1 = 0.1736	1.458
x1 = 0.2229	1.396
x1 = 0.2672	1.354
x1 = 0.3115	1.32
x1 = 0.3638	1.291
x1 = 0.4026	1.28
x1 = 0.4592	1.259
x1 = 0.5239	1.243
x1 = 0.5856	1.231
x1 = 0.6363	1.227
x1 = 0.6742	1.225
x1 = 0.7119	1.224
x1 = 0.7662	1.222
x1 = 0.8311	1.226
x1 = 0.8815	1.231
x1 = 0.9142	1.235
x1 = 0.9468	1.239
x1 = 0.9756	1.24

CNC=O + CCCO
viscosity [mPa·s], 101 kPa
Conditions	x2 = 0.1009	x2 = 0.2001	x2 = 0.3003	x2 = 0.4003	x2 = 0.5005	x2 = 0.6	x2 = 0.7001	x2 = 0.8009	x2 = 0.9007
303.15 K	1.545	1.51	1.475	1.454	1.441	1.444	1.464	1.52	1.605
308.15 K	1.423	1.389	1.357	1.336	1.322	1.321	1.337	1.381	1.448
313.15 K	1.316	1.284	1.252	1.231	1.216	1.213	1.225	1.258	1.31
318.15 K	1.22	1.189	1.158	1.138	1.123	1.118	1.124	1.149	1.188
323.15 K	1.134	1.105	1.075	1.054	1.036	1.03	1.034	1.051	1.079

COC(=O)c1ccccc1 + CCCO
viscosity [mPa·s], 100 kPa
Conditions	x1 = 0.05	x1 = 0.1	x1 = 0.2	x1 = 0.3	x1 = 0.4	x1 = 0.5	x1 = 0.6	x1 = 0.65	x1 = 0.8	x1 = 0.9
293.2 K	2.016	1.887	1.724	1.65	1.622	1.621	1.649	1.669	1.76	1.872
298.2 K	1.794	1.685	1.547	1.487	1.464	1.466	1.492	1.511	1.594	1.693
303.2 K	1.601	1.509	1.395	1.344	1.327	1.332	1.357	1.375	1.453	1.54
308.2 K	1.434	1.356	1.262	1.22	1.209	1.215	1.239	1.257	1.33	1.41
313.2 K	1.288	1.223	1.145	1.112	1.104	1.113	1.138	1.154	1.223	1.297
